Reference: patent US11584737B2, “Heterocyclic compound” (TAKEDA PHARMACEUTICAL COMPANY LIMITED, priority 2018, dated 2023)

Experiments:
CDK12/CycK complex [1] = target: T1, CDK12/CycK complex (Homo sapiens, UniProt Q9NYV4); assay: Measurement of CDK12 inhibitory activity by binding assay (TR-FRET, 66 nM BODIPY-FL-labeled AT-7519); settings: inhibitory rate against CDK12 at 1 μM test compound, 66 nM BODIPY-FL-labeled AT-7519, 2 nM CDK12/CycK
Outline: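 His-tagged CDK12/CycK (2 nM) premixed with 66 nM BODIPY-FL-AT-7519 tracer, 0.2 nM Tb-streptavidin and 0.4 nM biotin-anti-His, then incubated with compound 120 min at room temperature. Tracer displacement read as BODIPY-FL/Tb TR-FRET ratio; percent inhibition normalized to no-compound control and 3 μM AT-7519 blank.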

[2] = test system: A2780 intracellular CTD pSer2; assay: CTD pSer2 measurement using human ovarian cancer cell A2780 and In-Cell Western method; format: cell-based; settings: inhibitory rate against A2780 intracellular CTD pSer2 at 1 μM test compound, 4 hr
Description: Experimental Example 3: CTD pSer2 Measurement Using Human Ovarian Cancer Cell A2780 and In-Cell Western Method
A2780 cells (ATCC) were seeded in a 96 well plate at 1.8×10^4 cells/well, and the cells were cultured overnight in a cell culture medium RPMI1640 (FUJIFILM Wako Pure Chemical Corporation) containing 10% FBS (fetal bovine serum) and 1% penicillin/streptomycin. A test compound dissolved in a cell medium was added, and the mixture was stood for 4 hr in a CO2 incubator (37° C.). The cells were fixed with ALTFiX (Falma) for 30 min, and washed 3 times with a washing buffer (20 mM Tris-HCl (pH 7.5), 500 mM NaCl, 0.1% Tween20). 0.1% Triton-X-100 diluted with PBS(−) was added and the mixture was incubated at room temperature for 15 min. Thereafter, a blocking buffer (LI-COR) was added, and the mixture was incubated at room temperature for 1 hr. An anti-CTD pS2 antibody (Abcam) suspended in an antibody diluent (blocking buffer: PBS(−)-diluted 0.1% Tween20=1:1) was added, and the mixture was incubated at room temperature for 1 hr. The mixture was […] with a washing buffer, IRDye800CW-labeled anti-goat antibody (LI-COR) was added, and the mixture was incubated at room temperature for 1 hr. The mixture was washed 3 times with a washing buffer, and the fluorescence wavelength at 800 nm was measured by Aerius (LI-COR).
The inhibitory rate (%) of the test compound against A2780 intracellular CTD pSer2 was calculated by the following formula. Inhibitory rate (%)=(1−(count of test compound−blank)÷(control−blank))×100
The count of the A2780 cell under compound non-addition conditions is indicated as control, and the count under compound non-addition and primary antibody non-addition conditions is indicated as blank.
The results measured by the above-mentioned method (inhibitory rate of the signal value at 1 μM test compound relative to control) are shown below.

A2780 cells = assay: In vitro proliferation suppression test (CellTiter-Glo); format: cell-based, human; settings: Homo sapiens, 72 h, A2780 cell proliferation inhibitory rate at 1 μM test compound, three days
Outline: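 A2780 cells in RPMI1640 with 10% FBS were exposed to 1 μM compound for three days at 37° C, 5% CO2. CellTiter-Glo luminescence read; inhibition (%) calculated relative to wells without compound.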

CDK12/CycK enzyme = CDK12/CycK enzyme (Homo sapiens, UniProt Q9NYV4); assay: Measurement of CDK12/CycK inhibitory activity (ULight-4E-BP1 peptide phosphorylation, LANCE); format: biochemical; settings: inhibitory rate against CDK12/CycK at 1 μM test compound, ATP 10 μM or 500 μM
CDK12/CycK enzyme, sequence (Q9NYV4 whole entry, species assumed): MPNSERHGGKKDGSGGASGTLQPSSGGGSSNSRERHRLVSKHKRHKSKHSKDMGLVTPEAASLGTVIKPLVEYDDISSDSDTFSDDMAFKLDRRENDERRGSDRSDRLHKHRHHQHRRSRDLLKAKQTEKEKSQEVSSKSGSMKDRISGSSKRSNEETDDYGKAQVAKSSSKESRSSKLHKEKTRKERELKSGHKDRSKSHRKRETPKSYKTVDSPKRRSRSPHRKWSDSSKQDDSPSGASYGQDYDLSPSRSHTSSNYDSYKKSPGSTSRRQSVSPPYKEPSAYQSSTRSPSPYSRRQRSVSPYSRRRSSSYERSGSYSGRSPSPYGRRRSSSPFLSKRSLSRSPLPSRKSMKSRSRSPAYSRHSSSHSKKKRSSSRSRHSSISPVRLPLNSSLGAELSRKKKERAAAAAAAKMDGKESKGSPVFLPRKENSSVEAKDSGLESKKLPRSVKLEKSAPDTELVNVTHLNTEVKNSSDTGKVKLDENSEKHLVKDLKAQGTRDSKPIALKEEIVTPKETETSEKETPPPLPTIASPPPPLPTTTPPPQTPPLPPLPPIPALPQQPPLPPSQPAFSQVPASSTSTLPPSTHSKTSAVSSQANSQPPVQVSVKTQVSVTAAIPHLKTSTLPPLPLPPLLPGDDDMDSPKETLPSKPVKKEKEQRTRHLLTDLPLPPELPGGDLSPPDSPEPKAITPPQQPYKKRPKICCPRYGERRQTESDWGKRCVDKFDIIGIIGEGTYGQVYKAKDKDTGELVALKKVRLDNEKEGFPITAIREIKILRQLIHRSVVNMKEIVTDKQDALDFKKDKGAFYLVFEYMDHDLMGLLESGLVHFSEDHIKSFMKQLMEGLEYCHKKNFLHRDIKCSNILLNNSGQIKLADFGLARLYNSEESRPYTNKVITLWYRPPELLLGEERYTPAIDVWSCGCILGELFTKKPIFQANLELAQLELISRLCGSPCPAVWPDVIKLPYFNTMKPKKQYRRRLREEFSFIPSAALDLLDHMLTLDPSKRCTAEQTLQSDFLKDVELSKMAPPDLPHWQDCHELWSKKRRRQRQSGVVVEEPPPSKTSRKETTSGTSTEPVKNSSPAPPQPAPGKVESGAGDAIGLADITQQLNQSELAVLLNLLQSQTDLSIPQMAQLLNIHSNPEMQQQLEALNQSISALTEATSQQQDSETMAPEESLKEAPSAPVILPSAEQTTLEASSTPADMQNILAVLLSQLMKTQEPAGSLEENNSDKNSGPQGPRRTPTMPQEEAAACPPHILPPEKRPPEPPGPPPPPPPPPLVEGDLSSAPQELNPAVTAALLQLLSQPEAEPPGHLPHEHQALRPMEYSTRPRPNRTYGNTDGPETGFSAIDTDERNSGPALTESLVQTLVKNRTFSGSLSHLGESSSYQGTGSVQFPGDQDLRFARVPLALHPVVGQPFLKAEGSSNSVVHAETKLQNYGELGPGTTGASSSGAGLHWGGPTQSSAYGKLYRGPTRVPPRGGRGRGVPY
CDK12/CycK enzyme, sequence (O75909 whole entry partner, species assumed): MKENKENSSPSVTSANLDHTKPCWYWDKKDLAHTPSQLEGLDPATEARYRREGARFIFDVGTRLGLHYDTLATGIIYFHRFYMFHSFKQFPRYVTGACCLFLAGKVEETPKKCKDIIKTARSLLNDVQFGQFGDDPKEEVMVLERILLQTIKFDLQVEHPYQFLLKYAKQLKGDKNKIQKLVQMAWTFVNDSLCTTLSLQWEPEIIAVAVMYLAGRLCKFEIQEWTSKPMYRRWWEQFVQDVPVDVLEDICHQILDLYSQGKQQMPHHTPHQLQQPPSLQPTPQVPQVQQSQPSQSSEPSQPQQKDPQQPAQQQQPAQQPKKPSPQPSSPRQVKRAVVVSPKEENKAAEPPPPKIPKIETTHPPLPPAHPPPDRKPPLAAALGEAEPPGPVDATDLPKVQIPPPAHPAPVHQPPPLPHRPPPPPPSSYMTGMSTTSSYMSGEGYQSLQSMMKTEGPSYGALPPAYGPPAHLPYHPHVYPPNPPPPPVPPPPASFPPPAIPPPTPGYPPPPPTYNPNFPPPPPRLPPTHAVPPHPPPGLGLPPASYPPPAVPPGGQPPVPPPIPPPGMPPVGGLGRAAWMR
Description: Experimental Example 2: Measurement of CDK12/CycK Inhibitory Activity
A test compound dissolved in DMSO was added to a reaction solution (50 mM HEPES (pH 7.5), 10 mM MgCl2, 1 mM DTT, 0.01% Tween 20, 0.01% BSA) containing CDK12/CycK enzyme and ULight-labeled eIF4E-binding protein 1 (4E-BP1) (Thr37/Thr46) peptide (PerkinElmer), and the mixture was reacted at room temperature for 60 min. […] was added to give an ATP solution with a final concentration of 10 μM or 500 μM to start the enzyme reaction, and the mixture was reacted at room temperature for 60 min. A LANCE Detection buffer (PerkinElmer) containing europium-labeled anti-phosphorylation 4E-BP1 (Thr37/Thr46) antibody (PerkinElmer) and EDTA (final concentration 10 mM) was added to discontinue the reaction. After standing for 60 min, time decomposition fluorescence value (excitation 320 nm, emission 615 nm, 665 nm) was measured by Envision (PerkinElmer). The inhibitory rate (%) of the test compound against CDK12/CyclinK was calculated by the following formula. Inhibitory rate (%)=(1−(count of test compound−blank)÷(control−blank))×100
The count of the CDK12 enzyme reaction mixture under compound non-addition conditions is indicated as control, and the count under compound non-addition and CDK12/CycK enzyme non-addition conditions is indicated as blank.
The results measured by the above-mentioned method (inhibitory rate (%) of the signal value at 1 μM test compound relative to control is shown below.

CDK12/CycK complex [3] = target: T1, CDK12/CycK complex; assay: Measurement of CDK12 inhibitory activity by binding assay (BODIPY-FL labeled AT-7519 high concentration conditions, 1320 nM); settings: inhibitory rate against CDK12 at 1 μM test compound, 1320 nM BODIPY-FL-labeled AT-7519, 8 nM CDK12/CycK
Outline: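 His-tagged CDK12/CycK (8 nM) was incubated with test compound, BODIPY-FL-AT-7519 tracer (1320 nM), Tb-streptavidin (0.2 nM) and biotin-anti-His antibody (0.4 nM) for 120 min at room temperature. TR-FRET ratio (BODIPY-FL/Tb) gave % inhibition versus no-compound control and 30 μM AT-7519 blank; compounds tested at 1 μM.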

[4] = test system: Human breast cancer cells SUM149PT; assay: Antitumor action on SUM149PT cells tumor-bearing model; format: in vivo; settings: 60 mg/kg orally two times per day for 2 weeks; SUM149PT subcutaneous transplant in BALB/cAJcl-nu/nu mice; average tumor volume increase ratio vs control group
Description: Experimental Example 6: Antitumor Action on SUM149PT CELLS Tumor-Bearing Model
Human breast cancer cells SUM149PT were suspended in a solution of Matrigel (BD BIOSCIENCES):HBSS (Thermo Fisher Scientific)=1:1, and subcutaneously transplanted at 3×10^6 cells to the abdomen of BALB/cAJcl-nu/nu (CLEA Japan, Inc.). The tumor diameter of the engrafted tumor was measured and the tumor volume was calculated by the following formula. Tumor volume=major axis×minor axis×minor axis×(1/2)
Individuals having a tumor grown to a volume of about 120 mm^3 were selected, and 5 mice per group were used for the experiment. A suspension of the test compound in 0.5% methylcellulose solution (FUJIFILM Wako Pure Chemical Corporation) was orally administered at a dose of 60 mg/kg (10 mL/kg) two times per day for 2 weeks. The tumor volume was measured over time one day before the start of the administration, and every 4 days from day 3. The next day of the completion of medication for 14 days, the tumor diameter was finally measured and the tumor volume was calculated. The tumor proliferation rate of the test compound administration group in comparison with the control administration group was taken as an average tumor volume increase ratio T/C and calculated by the following formula. […]

T1 sequence (Q9NYV4 whole entry, species assumed): as the sequence (Q9NYV4 whole entry, species assumed) above
T1 sequence (O75909 whole entry partner, species assumed): as the sequence (O75909 whole entry partner, species assumed) above

| SMILES | inhibition at 1 µM (CDK12/CycK complex [1]) [%] | inhibition at 1 µM (CDK12/CycK enzyme) [%] | inhibition at 1 µM (CDK12/CycK complex [3]) [%] | inhibition at 1 µM [2] [%] | inhibition at 1 µM (A2780 cells) [%] | T/C (%) [4] [%] |
| --- | --- | --- | --- | --- | --- | --- |
| COc1ncc(-c2cnc(N(C(=O)NCc3ccccc3)[C@H]3CC[C@H](Nc4ncc(C#N)c(N5CCCC(O)CC5)n4)CC3)nc2)cn1 (stereo partly drawn) [Example 596, 3-benzyl-1-(trans-4-((5-cyano-4-(4-hydroxyazepan-1-yl)pyrimidin-2-yl)amino)cyclohexyl)-1-(2′-methoxy-5,5′-bipyrimidin-2-yl)urea] | 103 | 100 |  | 71 | 99 |  |
| COc1ncc(-c2ccc(N(C(=O)OCc3ccccc3)[C@H]3CC[C@H](Nc4ncc(C(F)(F)F)c(N5CC(F)(CO)C5)n4)CC3)nc2)cn1 [Example 600, benzyl (trans-4-((4-(3-fluoro-3-(hydroxymethyl)azetidin-1-yl)-5-(trifluoromethyl)pyrimidin-2-yl)amino)cyclohexyl) (5-(2-methoxypyrimidin-5-yl)pyridin-2-yl)carbamate] | 83 | 108 |  | 81 | 93 |  |
| COc1ncc(-c2ccc(N(C(=O)OCc3ccccc3)[C@H]3CC[C@H](Nc4ncc(C#N)c(N5CC(F)(CO)C5)n4)CC3)nc2)cn1 [Example 603, benzyl (trans-4-((5-cyano-4-(3-fluoro-3-(hydroxymethyl)-azetidin-1-yl)pyrimidin-2-yl)amino)cyclohexyl) (5-(2-methoxypyrimidin-5-yl)pyridin-2-yl)carbamate] | 76 | 103 |  | 81 | 93 |  |
| Cn1cc(-c2ccc(N(C(=O)NCc3ccccc3)[C@H]3CC[C@H](Nc4ncc(C#N)c(NC5(C)COC5)n4)CC3)nc2)cn1 [Example 605, 3-benzyl-1-(trans-4-((5-cyano-4-((3-methyloxetan-3-yl)amino)-pyrimidin-2-yl)amino)cyclohexyl)-1-(5-(1-methyl-1H-pyrazol-4-yl)pyridin-2-yl)urea] | 90 | 100 |  | 73 | 98 |  |
| COc1ncc(-c2cnc(N(C(=O)OCc3ccccc3)[C@H]3CC[C@H](Nc4ncc(C#N)c(NC5COC5)n4)CC3)nc2)cn1 [Example 608, benzyl (trans-4-((5-cyano-4-(oxetan-3-ylamino)pyrimidin-2-yl)amino)cyclohexyl) (2′-methoxy-5,5′-bipyrimidin-2-yl)carbamate] | 98 | 102 |  | 44 | 99 |  |

The next lines start with results.

| inhibition at 1 µM (CDK12/CycK complex [1]) [%] | inhibition at 1 µM (CDK12/CycK enzyme) [%] | inhibition at 1 µM (CDK12/CycK complex [3]) [%] | SMILES | inhibition at 1 µM [2] [%] | inhibition at 1 µM (A2780 cells) [%] | T/C (%) [4] [%] |
| --- | --- | --- | --- | --- | --- | --- |
| 99 | 107 |  | COc1ncc(-c2ccc(N(C(=O)NCc3ccccc3)[C@H]3CC[C@H](Nc4ncc(C#N)c(OC5COC5)n4)CC3)nc2)cn1 [Example 609, 3-benzyl-1-(trans-4-((5-cyano-4-(oxetan-3-yloxy)pyrimidin-2-yl)amino)cyclohexyl)-1-(5-(2-methoxypyrimidin-5-yl)pyridin-2-yl)urea] | 41 | 99 |  |
| 103 | 99 |  | COc1ncc(-c2ccc(N(C(=O)NCc3ccccn3)[C@H]3CC[C@H](Nc4ncc(C(F)(F)F)c(OC5COC5)n4)CC3)nc2)cn1 [Example 610, 1-(5-(2-methoxypyrimidin-5-yl)pyridin-2-yl)-1-(trans-4-((4-(oxetan-3-yloxy)-5-(trifluoromethyl)pyrimidin-2-yl)amino)cyclohexyl)-3-(pyridin-2-ylmethyl)urea] | 49 | 98 |  |
| 101 | 101 |  | COc1ncc(-c2cnc(N(C(=O)OCc3ccccc3)[C@H]3CC[C@H](Nc4ncc(C#N)c(N5CCCC(O)CC5)n4)CC3)nc2)cn1 (stereo partly drawn) [Example 611, benzyl (trans-4-((5-cyano-4-(4-hydroxyazepan-1-yl)pyrimidin-2-yl)amino)cyclohexyl) (2′-methoxy-5,5′-bipyrimidin-2-yl)carbamate] | 48 | 97 |  |
|  |  | 100 | COc1ncc(-c2cnc(N(C(=O)NCc3ccccc3)[C@H]3CC[C@H](Nc4ncc(C(F)(F)F)c(OC5COC5)n4)CC3)cn2)cn1 [Example 612, 3-benzyl-1-(5-(2-methoxypyrimidin-5-yl)pyrazin-2-yl)-1-(trans-4-((4-(oxetan-3-yloxy)-5-(trifluoromethyl)pyrimidin-2-yl)amino)cyclohexyl)urea] |  | 97 | −22 |
